Source: patent US20260250318A1, “COMPOSITIONS AND METHODS FOR CROSSING THE BLOOD BRAIN BARRIER” (VOYAGER THERAPEUTICS, INC., priority 2022, published 2026)

Assays:
brain = assay: Matured TTM-001 and TTM-002 variants, NGS enrichment in mouse brain; format: in vivo, mice; settings: relative to AAV9 control
[1] = test system: brains, heart, liver, muscle, and DRG of the NHPs; assay: Maturation of TTM-001 and TTM-002 capsids, NGS enrichment in NHP tissues; format: in vivo; settings: relative to AAV9 control
Procedure, shortened: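 Variants carry mutations within and flanking the loop IV peptide insert: positions 450–466 were triplet-randomized, while positions 449–466 received low-frequency point mutations. The combined pool went into two NHPs, and each peptide was scored by NGS enrichment ratio against AAV9.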

[2] = NGS fold-enrichment, brain of mice
[3] = NGS fold-enrichment, mouse brain
[4] = NGS fold-enrichment of RNA, NHP brain
[5] = NGS fold-enrichment, DRG of NHPs
[6] = NGS fold-enrichment, NHP liver DNA
[7] = NGS fold-enrichment, NHP liver RNA
[8] = NGS fold-enrichment, NHP muscle
[9] = NGS fold-enrichment, RNA, brain of NHPs
[10] = NGS fold-enrichment, heart of NHPs
[11] = NGS fold-enrichment, liver DNA of NHPs
[12] = NGS fold-enrichment, liver RNA of NHPs
[13] = NGS fold-enrichment, muscle of NHPs
[14] = NGS fold-enrichment of matured AAV capsid variants, NHP brain, RNA

Row | Sequence | Fold Enrichment relative to AAV9, Brain (Mouse) (brain; [2]) | Fold Enrichment relative to AAV9, DRG (NHP) [1, 5] | Fold Enrichment relative to AAV9, Brain (NHP) [1, 9] | Fold Enrichment relative to AAV9, Heart (NHP) [1, 10] | Fold Enrichment relative to AAV9, Liver DNA (NHP) [1, 11] | Fold Enrichment relative to AAV9, Liver RNA (NHP) [1, 12] | Fold Enrichment relative to AAV9, Muscle (NHP) [1, 13] | Fold Enrichment relative to AAV9, Brain (Mouse) (brain; mouse brain) | Fold Enrichment relative to AAV9, Brain (NHP) [1, 14] | Fold Enrichment relative to AAV9, DRG (NHP) ([1]; NHP DRG) | Fold Enrichment relative to AAV9, Heart (NHP) ([1]; NHP heart) | Fold Enrichment relative to AAV9, Liver DNA (NHP) ([1]; NHP liver, DNA) | Fold Enrichment relative to AAV9, Liver RNA (NHP) ([1]; NHP liver, RNA) | Fold Enrichment relative to AAV9, Muscle (NHP) ([1]; NHP muscle) | further results
1 | KTDKSSGSPHSKAQNQQT | 141.351 fold | 0.055 fold | 79.470 fold | 0.012 fold | 0.367 fold | 1.437 fold | 0.000 fold |  |  |  |  |  |  |  | Fold Enrichment relative to AAV9, Brain (Mouse) (brain; [3]): 141.351 fold; Fold Enrichment relative to AAV9, Brain (NHP) [1, 4]: 79.470 fold; Fold Enrichment relative to AAV9, DRG (NHP) ([1]; NGS fold-enrichment, NHP DRG): 0.055 fold; Fold Enrichment relative to AAV9, Heart (NHP) ([1]; NGS fold-enrichment, NHP heart): 0.012 fold; Fold Enrichment relative to AAV9, Liver DNA (NHP) [1, 6]: 0.367 fold; Fold Enrichment relative to AAV9, Liver RNA (NHP) [1, 7]: 1.437 fold; Fold Enrichment relative to AAV9, Muscle (NHP) [1, 8]: 0.000 fold
2 | KTDKTSGSPHSKAQNQQT | 169.515 fold | 0.000 fold | 81.430 fold | 0.000 fold | 0.291 fold | 1.362 fold | 0.000 fold |  |  |  |  |  |  |  | Fold Enrichment relative to AAV9, Brain (Mouse) (brain; [3]): 169.515 fold; Fold Enrichment relative to AAV9, Brain (NHP) [1, 4]: 81.430 fold; Fold Enrichment relative to AAV9, DRG (NHP) ([1]; NGS fold-enrichment, NHP DRG): 0.000 fold; Fold Enrichment relative to AAV9, Heart (NHP) ([1]; NGS fold-enrichment, NHP heart): 0.000 fold; Fold Enrichment relative to AAV9, Liver DNA (NHP) [1, 6]: 0.291 fold; Fold Enrichment relative to AAV9, Liver RNA (NHP) [1, 7]: 1.362 fold; Fold Enrichment relative to AAV9, Muscle (NHP) [1, 8]: 0.000 fold
3 | KTDKVSGSPHSKAQNQQT | 146.657 fold | 0.000 fold | 60.935 fold | 0.015 fold | 0.128 fold | 0.765 fold | 0.000 fold |  |  |  |  |  |  |  | 
4 | KTDLKSGSPHSKAQNQQT | 62.687 fold | 0.000 fold | 63.152 fold | 0.000 fold | 0.377 fold | 0.285 fold | 0.012 fold |  |  |  |  |  |  |  | 
5 | KTDNGHDSPHKSRQNQQT |  |  |  |  |  |  |  |  |  |  |  |  |  |  | Fold Enrichment relative to AAV9, Brain (Mouse) (brain; [3]): 7.931 fold; Fold Enrichment relative to AAV9, Brain (NHP) [1, 4]: 105.312 fold; Fold Enrichment relative to AAV9, DRG (NHP) ([1]; NGS fold-enrichment, NHP DRG): 0.000 fold; Fold Enrichment relative to AAV9, Heart (NHP) ([1]; NGS fold-enrichment, NHP heart): 0.033 fold; Fold Enrichment relative to AAV9, Liver DNA (NHP) [1, 6]: 0.018 fold; Fold Enrichment relative to AAV9, Liver RNA (NHP) [1, 7]: 0.000 fold; Fold Enrichment relative to AAV9, Muscle (NHP) [1, 8]: 0.000 fold
6 | KTDNGSGSPHSKAHNQQT | 55.313 fold | 0.000 fold | 95.164 fold | 0.000 fold | 0.027 fold | 0.000 fold | 0.000 fold |  |  |  |  |  |  |  | Fold Enrichment relative to AAV9, Brain (Mouse) (brain; [3]): 55.313 fold; Fold Enrichment relative to AAV9, Brain (NHP) [1, 4]: 95.164 fold; Fold Enrichment relative to AAV9, DRG (NHP) ([1]; NGS fold-enrichment, NHP DRG): 0.000 fold; Fold Enrichment relative to AAV9, Heart (NHP) ([1]; NGS fold-enrichment, NHP heart): 0.000 fold; Fold Enrichment relative to AAV9, Liver DNA (NHP) [1, 6]: 0.027 fold; Fold Enrichment relative to AAV9, Liver RNA (NHP) [1, 7]: 0.000 fold; Fold Enrichment relative to AAV9, Muscle (NHP) [1, 8]: 0.000 fold
7 | KTDRGSGSPHSKAQNQQT | 74.256 fold | 0.000 fold | 61.419 fold | 0.004 fold | 0.316 fold | 0.211 fold | 0.000 fold |  |  |  |  |  |  |  | 
8 | KTDRMSGSPHSKAQNQQT | 104.890 fold | 0.000 fold | 65.143 fold | 0.000 fold | 0.103 fold | 0.332 fold | 0.000 fold |  |  |  |  |  |  |  | 
9 | KTDRNSGSPHSKAQNQQT |  |  |  |  |  |  |  | 85.823 fold | 54.495 fold | 0.000 fold | 0.000 fold | 0.241 fold | 0.823 fold | 0.000 fold | 
10 | KTDRSSGSPHSKAQNQQT |  |  |  |  |  |  |  | 123.421 fold | 52.737 fold | 0.000 fold | 0.000 fold | 0.085 fold | 0.995 fold | 0.000 fold | 
11 | KTDRTSGSPHSKAQNQQT |  |  |  |  |  |  |  | 148.498 fold | 56.466 fold | 0.000 fold | 0.000 fold | 0.160 fold | 0.062 fold | 0.000 fold | 
12 | KTDVGSGSPHSKAQNQQT |  |  |  |  |  |  |  | 115.774 fold | 51.849 fold | 0.000 fold | 0.007 fold | 0.560 fold | 0.385 fold | 0.000 fold | 
13 | KTDVKSGSPHSKAQNQQT |  |  |  |  |  |  |  | 53.601 fold | 51.296 fold | 0.000 fold | 0.000 fold | 0.224 fold | 0.515 fold | 0.000 fold | 
14 | KTDVNSGSPHSKAQNQQT |  |  |  |  |  |  |  | 66.127 fold | 57.593 fold | 0.000 fold | 0.000 fold | 0.331 fold | 0.000 fold | 0.000 fold | 
15 | KTEARSGSPHSKAQNQQT | 62.903 fold | 0.000 fold | 73.349 fold | 0.000 fold | 0.118 fold | 0.695 fold | 0.000 fold |  |  |  |  |  |  |  | 
16 | KTEDKSGSPHSKAQNQQT | 70.071 fold | 0.000 fold | 68.813 fold | 0.000 fold | 0.000 fold | 0.000 fold | 0.000 fold |  |  |  |  |  |  |  | 
17 | KTEDLSGSPHSKAQNQQT |  |  |  |  |  |  |  | 70.198 fold | 54.156 fold | 0.000 fold | 0.000 fold | 0.132 fold | 1.193 fold | 0.000 fold | 
18 | KTEDRSGSPHSKAQNQQT | 66.887 fold | 0.000 fold | 61.756 fold | 0.000 fold | 0.408 fold | 1.004 fold | 0.000 fold |  |  |  |  |  |  |  | 
19 | KTEFGHDSPHKSGQNQQT |  |  |  |  |  |  |  |  |  |  |  |  |  |  | Fold Enrichment relative to AAV9, Brain (Mouse) (brain; [3]): 16.337 fold; Fold Enrichment relative to AAV9, Brain (NHP) [1, 4]: 77.245 fold; Fold Enrichment relative to AAV9, DRG (NHP) ([1]; NGS fold-enrichment, NHP DRG): 0.000 fold; Fold Enrichment relative to AAV9, Heart (NHP) ([1]; NGS fold-enrichment, NHP heart): 0.124 fold; Fold Enrichment relative to AAV9, Liver DNA (NHP) [1, 6]: 0.063 fold; Fold Enrichment relative to AAV9, Liver RNA (NHP) [1, 7]: 0.561 fold; Fold Enrichment relative to AAV9, Muscle (NHP) [1, 8]: 0.000 fold
20 | KTEFVSGSPHSKAQNQQT | 69.788 fold | 0.000 fold | 59.306 fold | 0.000 fold | 0.276 fold | 0.196 fold | 0.000 fold |  |  |  |  |  |  |  | 
21 | KTEGISGSPHSKAQNQQT |  |  |  |  |  |  |  | 78.303 fold | 53.270 fold | 0.000 fold | 0.000 fold | 0.010 fold | 0.000 fold | 0.000 fold | 
